Data set [1] in a line: Octanol-phosphate buffer partition coefficient, log P of the compound after 24 hr. The data set is classed as physicochemical.
The subject of data set [2] is Mus musculus. The data set is described as follows: Neurotoxicity in Mus musculus albino CF1 (mouse) assessed as motor impairment at 300 mg/kg, ip up to 4 hr. More on the design: dose 300 mg/kg, route intraperitoneal. Conditions: in vivo. Type of data set: toxicity, organism-based.
Data set [3] concerns Mus musculus. The data set is described as follows: Neurotoxicity in Mus musculus albino CF1 (mouse) assessed as motor impairment at 100 mg/kg, ip after 4 hr. The settings on record: in vivo. More on the design: dose 100 mg/kg, route intraperitoneal. The data set is classed as toxicity, organism-based.
Data set [4] relates to Mus musculus. The data set is described as follows: Neurotoxicity in Mus musculus albino CF1 (mouse) assessed as motor impairment at 100 mg/kg, ip after 2 hr. The data set is classed as toxicity, organism-based. On the set-up: dose 100 mg/kg, route intraperitoneal. The settings on record: in vivo.
The test system of data set [5] is Mus musculus. The data set is described as follows: Neurotoxicity in Mus musculus albino CF1 (mouse) assessed as motor impairment at 100 mg/kg, ip after 1 hr. On the set-up: dose 100 mg/kg, route intraperitoneal. The settings on record: in vivo. The data set is classed as toxicity, organism-based.
Data set [6] has as its system Mus musculus. The data set is described as follows: Neurotoxicity in Mus musculus albino CF1 (mouse) assessed as motor impairment at 100 mg/kg, ip after 0.5 hr. Type of data set: toxicity, organism-based. On the set-up: dose 100 mg/kg, route intraperitoneal. Conditions: in vivo.
For data set [7], the system named is Mus musculus. The data set is described as follows: Neurotoxicity in Mus musculus albino CF1 (mouse) assessed as motor impairment at 100 mg/kg, ip after 0.25 hr. Type of data set: toxicity, organism-based. On the set-up: dose 100 mg/kg, route intraperitoneal. The settings on record: in vivo.
For data set [8], the system named is Mus musculus. The data set is described as follows: Anticonvulsant activity in Mus musculus albino CF1 (mouse) assessed as protection against 6 Hz psychomotor seizure at 100 mg/kg, ip after 4 hr. Type of data set: functional. Conditions: route intraperitoneal.
Data set [9] concerns Mus musculus. The data set is described as follows: Anticonvulsant activity in Mus musculus albino CF1 (mouse) assessed as protection against 6 Hz psychomotor seizure at 100 mg/kg, ip after 2 hr. The data set is classed as functional. Conditions: route intraperitoneal.
Data set [10] relates to Mus musculus. The data set is described as follows: Anticonvulsant activity in Mus musculus albino CF1 (mouse) assessed as protection against 6 Hz psychomotor seizure at 100 mg/kg, ip after 1 hr. Type of data set: functional. Conditions: route intraperitoneal.
For data set [11], the system named is Mus musculus. The data set is described as follows: Anticonvulsant activity in Mus musculus albino CF1 (mouse) assessed as protection against 6 Hz psychomotor seizure at 100 mg/kg, ip after 0.5 hr. Type of data set: functional. Conditions: route intraperitoneal.
In data set [12] the test system is Mus musculus. The data set is described as follows: Anticonvulsant activity in Mus musculus albino CF1 (mouse) assessed as protection against 6 Hz psychomotor seizure at 100 mg/kg, ip after 0.25 hr. The data set is classed as functional. Conditions: route intraperitoneal.

By logP is commonly meant the decadic logarithm of the partition coefficient of the neutral form, usually between octanol and water. In data set [1], `O=C1Nc2ccccc2/C1=N/Nc1nc2ccccc2s1` returned a logP at 24 h of 3.2. In addition, the Activity entry in the data set on Mus musculus [2], in the data set with Mus musculus [3], in the data set with Mus musculus [4], in the data set on Mus musculus [5], in the data set on Mus musculus [6] and with Mus musculus [7] was “Non-toxic” each time. The Activity stood at 0% in the data set with Mus musculus [8]; 25% with Mus musculus [9]; 25% with Mus musculus [10]; 0% in the data set on Mus musculus [11]; 0% in the data set with Mus musculus [12].
The compound `Cc1cc(Oc2ccc(/C=N/NC(=O)CSc3nc4ccccc4s3)cc2)ccc1Cl` displayed a log partition coefficient (logP) at 24 h in [1] of 5.7. The Activity entry with Mus musculus [2], in the data set with Mus musculus [3], in the data set with Mus musculus [4], in the data set on Mus musculus [5], in the data set with Mus musculus [6] and in the data set on Mus musculus [7] was “Non-toxic” throughout. Besides, the Activity with Mus musculus [8] was 0%; in the data set on Mus musculus [9] it was 0%; with Mus musculus [10] it was 25%; in the data set with Mus musculus [11], 25%; in the data set with Mus musculus [12], 0%.
In the case of `O=C(CSc1nc2ccccc2s1)N/N=C/c1ccc(Oc2ccccc2)cc1`, the logP at 24 h in [1] was 5.6. In addition, the Activity result in the data set with Mus musculus [2], in the data set on Mus musculus [3], in the data set on Mus musculus [4], in the data set with Mus musculus [5], in the data set with Mus musculus [6] and in the data set on Mus musculus [7] was “Non-toxic” in each case. Moreover, the Activity in the data set with Mus musculus [8] came to 0%; in the data set with Mus musculus [9], 0%; in the data set on Mus musculus [10], 50%; with Mus musculus [11], 25%; with Mus musculus [12] it was 50%.
In data set [1], `C(=N\Nc1nc2ccccc2s1)/c1ccc(Oc2ccc3c(c2)OCO3)cc1` gave a logP at 24 h of 5. Moreover, the Activity result in the data set on Mus musculus [2], in the data set with Mus musculus [3], with Mus musculus [4], with Mus musculus [5], with Mus musculus [6] and in the data set on Mus musculus [7] was “Non-toxic” in each case. The Activity in the data set on Mus musculus [8] is reported as 0%; in the data set on Mus musculus [9], 0%; in the data set on Mus musculus [10] it was 0%; in the data set with Mus musculus [11] it was 25%; in the data set with Mus musculus [12] it was 0%.
In turn, `Clc1ccc(Oc2ccc(/C=N/Nc3nc4ccccc4s3)cc2)cc1` displayed a logP at 24 h in [1] of 5.6. For the same compound, the Activity entry in the data set on Mus musculus [2], in the data set on Mus musculus [3], with Mus musculus [4], with Mus musculus [5], in the data set on Mus musculus [6] and with Mus musculus [7] was “Non-toxic” each time. The Activity is 0% in the data set with Mus musculus [8]; 25% with Mus musculus [9]; 0% in the data set on Mus musculus [10]; 50% in the data set with Mus musculus [11]; 0% with Mus musculus [12].
On to `C(=N\Nc1nc2ccccc2s1)/c1ccc(Oc2ccccc2)cc1`, for which the log partition coefficient (logP) at 24 h in [1] was found to be 5.2. Besides, the Activity entry in the data set with Mus musculus [2], with Mus musculus [3], in the data set with Mus musculus [4], in the data set with Mus musculus [5], with Mus musculus [6] and with Mus musculus [7] was “Non-toxic” each time. For the same compound, the Activity in the data set on Mus musculus [8] worked out at 0%; in the data set on Mus musculus [9] it was 50%; in the data set with Mus musculus [10], 0%; in the data set on Mus musculus [11] it was 25%; in the data set with Mus musculus [12] it was 0%.

The values are drawn from ChEMBL document CHEMBL3045994, “Design, synthesis, and anticonvulsant evaluation of some novel 1, 3 benzothiazol-2-yl hydrazones/acetohydrazones” (Med Chem Res, 2012).
